According to patent publication US20260083865A1, “PROSTATE SPECIFIC MEMBRANE ANTIGEN (PSMA) LIGANDS AND USE THEREOF” (priority 2022, published 2026):
Read-outs that look alike come from different tables or passages of the source. Numbered stars: 1 amine (or outer) side, 2 acyl side, 3 side chain; on linkers, the order of the positions; unused ones are H or OH. Bridge positions count the residues as written; N and C are the ends. Square brackets hold non-standard residues; d marks the D form. Peptide text beside a SMILES is read from it. * marks the point of attachment. ξ: configuration not given here. X17 = N=c1ccc2c(-c3ccc(C(=O)NCCC(=O)N4Cc5ccccc5-c5c(nnn5CCCCCC(=O)NCCCOCCOCCOCCCNC(=O)CCC(=O)NCCCOCCOCCOCCCN*)-c5ccccc54)cc3C(=O)O)c3ccc(N)c(S(=O)(=O)O)c3oc-2c1S(=O)(=O)O; X19 = NC(=O)[C@H](CCCCNC(=O)CCCC[C@@H]1SC[C@@H]2NC(=O)N[C@@H]21)NC(=O)CCC(=O)NCCCOCCOCCOCCCNC(=O)CCC(=O)NCCCOCCOCCOCCCNC(=O)CCC(=O)NCCCOCCOCCOCCCN*; X3 = O=C(O)CN1CCN(CC(=O)O)CCN(CC(=O)NCCCOCCOCCOCCCN*)CCN(CC(=O)O)CC1; X18 = O=C(O)c1cccc(CN2CCOCCOCCN(Cc3cc(N*)cc(C(=O)O)n3)CCOCCOCC2)n1; DOTA = O=C(O)CN1CCN(CC(=O)O)CCN(CC(=O)*)CCN(CC(=O)O)CC1; X20 = CN(CCC[C@H](N[*:1])C(=O)[*:2])C(=N)N; Phe(4-Cl) = N[C@@H](Cc1ccc(Cl)cc1)C(=O)O; Pro(4R-NH2) = N[C@H]1CN[C@H](C(=O)O)C1; Arg(Me) = CNC(=N)NCCC[C@H](N)C(=O)O; Glutaryl = O=C(CCCC(=O)[*:2])[*:1]; X1 = O=C(CC1CCN([*:1])CC1)[*:2]; Cit = NC(=O)NCCC[C@H](N)C(=O)O; Lys(Me) = CNCCCC[C@H](N)C(=O)O; Suc = O=C(CCC(=O)[*:2])[*:1]; Tle = CC(C)(C)[C@H](N)C(=O)O; Aib = CC(C)(N)C(=O)O; ξM = CSCCC(N)C(=O)O

Columns and labels:
[1] = target: T1, PSMA-expressing C4-2 cells (Homo sapiens, UniProt Q04609); assay: FACS binding assay (competition with 50 nM PSM-0183); conditions: C4-2 cells, read-out: pIC50 [C4-2] CAT (converted)
T1 construct: PSMA-expressing C4-2 cells (ATCC, Cat. No. CRL-3314) were cultured in RPMI-1640; host or cells: C4-2 cells
T1 sequence (Q04609 whole entry): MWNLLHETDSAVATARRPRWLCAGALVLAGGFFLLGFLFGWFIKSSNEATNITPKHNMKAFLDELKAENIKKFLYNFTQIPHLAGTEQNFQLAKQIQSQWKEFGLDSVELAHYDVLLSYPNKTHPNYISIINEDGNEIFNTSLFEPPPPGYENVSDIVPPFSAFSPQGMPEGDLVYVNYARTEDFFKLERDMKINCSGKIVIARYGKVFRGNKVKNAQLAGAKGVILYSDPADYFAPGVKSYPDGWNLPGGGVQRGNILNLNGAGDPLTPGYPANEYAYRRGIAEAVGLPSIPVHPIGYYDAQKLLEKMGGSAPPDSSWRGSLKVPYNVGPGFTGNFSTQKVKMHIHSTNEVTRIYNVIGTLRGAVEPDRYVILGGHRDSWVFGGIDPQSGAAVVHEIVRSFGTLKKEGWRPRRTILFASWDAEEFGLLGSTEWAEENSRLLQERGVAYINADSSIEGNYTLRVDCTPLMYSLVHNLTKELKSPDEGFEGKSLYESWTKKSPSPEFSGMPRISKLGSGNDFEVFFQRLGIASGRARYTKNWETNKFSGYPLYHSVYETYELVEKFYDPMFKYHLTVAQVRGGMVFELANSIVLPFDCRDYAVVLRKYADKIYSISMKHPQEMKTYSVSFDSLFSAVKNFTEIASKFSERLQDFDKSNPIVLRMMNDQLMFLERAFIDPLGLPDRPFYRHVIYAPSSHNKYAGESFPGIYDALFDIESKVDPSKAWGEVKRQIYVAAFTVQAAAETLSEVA
Description: In order to determine binding of compounds according to the present invention to PSMA-expressing cells, a FACS binding assay was established.
PSMA-expressing C4-2 cells (ATCC, Cat. No. CRL-3314) were cultured in RPMI-1640 (Pan Biotech, Cat. No. P04-18050) including 10% fetal calf serum (Biochrom) and 100 U/ml penicillin and 100 μg/mL streptomycin (Sigma, Cat. No. P0781). Cells were detached with Accutase (Biolegend, Cat. No. BLD-423201) and washed in FACS buffer (PBS (Sigma, Cat. No. D8537) including 1% fetal calf serum). Cells were diluted in FACS buffer to a final concentration of 500,000 cells per mL. 200 μL of the cell suspension were transferred to a u-shaped non-binding 96-well plate (Greiner Bio-One, Cat. No. 650901) and cells were washed in ice-cold FACS buffer.
For IC50 determination, C4-2 cells were incubated with 50 nM PSM-0183 (Ac-Thr-Aib-Phe[Cys-Lys-Arg-Aib-Asn-Cys]-Tle-Thr-Asp-Ttds-Ttds-AF488N3K-NH2) in the presence of increasing concentrations of test compounds at 4° C. for 1 hour. After two wash steps with ice-cold FACS buffer, cells were analyzed in an Attune NxT flow cytometer. Median fluorescence intensities (MFI) of the FITC/AF488-channel were calculated by Attune NxT software. MFI values were plotted against peptide concentration and four parameter logistic (4PL) curve fitting and IC50/pIC50 calculations were performed using ActivityBase software (IDBS).

[2] = target: T2, Fc-fusion protein of human PSMA (hPSMA-Fc) (Homo sapiens, UniProt Q04609); assay: Surface plasmon resonance assay (Biacore T200, single cycle kinetic); format: binding; conditions: hPSMA-Fc, 25° C., read-out: pKD CAT (converted)
T2 construct: purchased Acro Biosystems PSA-H5264
T2 sequence (Q04609 44-750 limits assumed): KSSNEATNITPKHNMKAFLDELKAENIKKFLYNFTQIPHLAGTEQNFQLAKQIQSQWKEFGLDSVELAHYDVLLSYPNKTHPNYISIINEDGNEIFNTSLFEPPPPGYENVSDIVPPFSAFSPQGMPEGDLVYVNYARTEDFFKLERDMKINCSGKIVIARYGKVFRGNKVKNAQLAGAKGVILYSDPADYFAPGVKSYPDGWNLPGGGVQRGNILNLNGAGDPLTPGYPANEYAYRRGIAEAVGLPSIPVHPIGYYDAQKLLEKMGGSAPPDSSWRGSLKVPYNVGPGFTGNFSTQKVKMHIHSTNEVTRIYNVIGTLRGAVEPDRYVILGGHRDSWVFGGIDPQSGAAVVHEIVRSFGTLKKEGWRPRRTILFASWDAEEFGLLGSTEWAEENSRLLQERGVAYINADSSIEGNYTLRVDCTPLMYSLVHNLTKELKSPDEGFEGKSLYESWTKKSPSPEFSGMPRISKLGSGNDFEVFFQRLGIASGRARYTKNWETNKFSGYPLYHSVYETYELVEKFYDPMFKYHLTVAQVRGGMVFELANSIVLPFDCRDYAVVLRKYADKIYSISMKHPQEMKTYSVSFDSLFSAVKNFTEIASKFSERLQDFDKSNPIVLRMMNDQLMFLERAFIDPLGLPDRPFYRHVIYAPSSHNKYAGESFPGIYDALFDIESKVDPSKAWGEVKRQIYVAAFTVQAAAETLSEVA
Description: Surface plasmon resonance (SPR) studies were performed using a Biacore™ T200 SPR system. Briefly, polarized light is directed towards a gold-labeled sensor surface, and minimum intensity reflected light is detected. The angle of reflected light changes as molecules bind and dissociate.
Fc-fusion protein of human PSMA (hPSMA-Fc, Acro Biosystems, Cat #PSA-H5264) was captured on a Fc-capture chip (Biacore™ CM5 sensor chip coated with ˜300 RU of an Fc-binding peptide). hPSMA-Fc was diluted in Running Buffer (HBST, 0.1% DMSO) to a final concentration of 100 nM and then flushed over the Fc-capture chip to immobilized ˜1000 RUs.
Stock solutions of test compounds were prepared by dissolving each compound in DMSO. DMSO stock solution were diluted 1:1000 in Running Buffer without DMSO. Further sequential dilutions were made with Running Buffer containing 0.1% DMSO. SPR binding analyses were performed in Single Cycle Kinetic (SCK) mode at 25° C. Flow cell coated with the Fc-binding peptide only served as reference flowcell. After each SCK run, hPSMA-Fc was removed with 10 mM glycine buffer, pH 1.5.
In between every three SCK measurements, a blank run with Running Buffer instead of test compound was included to correct for baseline drifts (double blanking method).
Table 5 describes the protocol steps for Fc-fusion target capturing and assessment of the binding kinetics.
For each test compound, SPR raw data in the form of resonance units (RU) were plotted as sensorgrams using the Biacore™ T200 control software. The signal from the blank sensorgram was subtracted from that of the test compound sensorgram (blank corrected). The blank corrected sensorgram was corrected for baseline drift by subtracting the sensorgram of a SCK run without the test compound (running buffer only). The dissociation constant (KD) was calculated from Blank-normalized SPR data using the 1:1 Langmuir binding model from the Biacore™ Insight Evaluation software. The pKD value (negative decadic logarithm of dissociation constant) was calculated using Microsoft Excel.

[3] = FACS binding, competition with 50 nM PSM-0183, category
[4] = SPR, single cycle kinetic, category

| SMILES | IC50 [1, 3] [nM] | Kd [2, 4] [nM] | also measured |
| --- | --- | --- | --- |
| CNCCCC[C@@H]1NC(=O)[C@@H](NC(=O)[C@H](Cc2ccc(Cl)cc2)NC(=O)C(C)(C)NC(=O)[C@@H](NC(=O)CC2CCN(C(=O)CN3CCN(CC(=O)O)CCN(CC(=O)O)CCN(CC(=O)O)CC3)CC2)[C@@H](C)O)CSSC[C@@H](C(=O)N[C@H](C(N)=O)C(C)(C)C)NC(=O)[C@H](CC(N)=O)NC(=O)C(C)(C)NC(=O)[C@H](CCCNC(=N)N)NC1=O [PSM-0200, DOTA-Cmp-Thr-Aib-Pcf-[Cys-Lys(Me)-Arg-Aib-Asn-Cys]-Tle-NH2] ({DOTA}-[X1]T[Aib][Phe(4-Cl)]C[Lys(Me)]R[Aib]NC[Tle]-NH2; disulfide 5-10) | < 200 | < 12.6 |  |
| CC(=O)N[C@H](C(=O)NC(C)(C)C(=O)N[C@@H](Cc1ccccc1)C(=O)N[C@H]1CSSC[C@@H](C(=O)N[C@H](C(=O)N[C@H](C(=O)N[C@@H](CC(=O)O)C(N)=O)[C@@H](C)O)C(C)(C)C)NC(=O)[C@H](CC(N)=O)NC(=O)[C@H](C)NC(=O)[C@H](CCCNC(=N)N)NC(=O)[C@@H]2C[C@@H](N)CN2C1=O)[C@@H](C)O [PSM-0422, Ac-Thr-Aib-Phe-[Cys-Tap-Arg-Ala-Asn-Cys]-Tle-Thr-Asp-NH2] (Ac-T[Aib]FC[Pro(4R-NH2)]RANC[Tle]TD-NH2; disulfide 4-9) |  |  | IC50 ([1]; pIC50 category of FACS binding): < 200 nM; Kd ([2]; pKD category for PSMA SPR activity assay): 126 to 501 nM |
| C[C@@H](O)[C@H](NC(=O)CCC(=O)NCCCOCCOCCOCCCNC(=O)CCC(=O)NCCCOCCOCCOCCCNC(=O)CCCCCn1nnc2c1-c1ccccc1CN(C(=O)CCNC(=O)c1ccc(-c3c4ccc(=N)c(S(=O)(=O)O)c-4oc4c(S(=O)(=O)O)c(N)ccc34)c(C(=O)O)c1)c1ccccc1-2)C(=O)NC(C)(C)C(=O)N[C@@H](Cc1ccccc1)C(=O)N[C@H]1CSSC[C@@H](C(=O)N[C@H](C(=O)N[C@H](C(=O)N[C@@H](CC(=O)O)C(N)=O)[C@@H](C)O)C(C)(C)C)NC(=O)[C@H](CC(N)=O)NC(=O)C(C)(C)NC(=O)[C@H](CCCNC(=N)N)NC(=O)[C@H](CCCCN)NC1=O [PSM-0272, AF488Ahx-Ttds-Ttds-Thr-Aib-Phe-[Cys-Lys-Arg-Aib-Asn-Cys]-Tle-Thr-Asp-NH2] ({X17-Suc}-T[Aib]FCKR[Aib]NC[Tle]TD-NH2; disulfide 4-9) |  |  | Kd ([2]; PSMA SPR assay, pKD category): < 12.6 nM |
| CNCCCC[C@@H]1NC(=O)[C@@H](NC(=O)[C@H](Cc2ccc(Cl)cc2)NC(=O)C(C)(C)NC(=O)[C@@H](NC(=O)CC2CCN(C(=O)CN3CCN(CC(=O)O)CCN(CC(=O)O)CCN(CC(=O)O)CC3)CC2)[C@@H](C)O)CSSC[C@@H](C(=O)N[C@H](C(=O)N[C@H](C(N)=O)[C@@H](C)O)C(C)(C)C)NC(=O)[C@H](CC(N)=O)NC(=O)C(C)(C)NC(=O)[C@H](CCCN(C)C(=N)N)NC1=O [PSM-0592, DOTA-Cmp-Thr-Aib-Pcf-[Cys-Lys(Me)-RMe1-Aib-Asn-Cys]-Tle-Thr-NH2] ({DOTA}-[X1]T[Aib][Phe(4-Cl)]C[Lys(Me)][X20][Aib]NC[Tle]T-NH2; disulfide 5-10) |  |  | IC50 ([1]; FACS binding, category): < 200 nM |
| CC(=O)N[C@H](C(=O)NC(C)(C)C(=O)N[C@@H](Cc1ccccc1)C(=O)N[C@H]1CSSC[C@@H](C(=O)N[C@H](C(=O)N[C@H](C(=O)N[C@@H](CC(=O)O)C(=O)NCCCOCCOCCOCCCNC(=O)CCC(=O)NCCCOCCOCCOCCCNC(=O)CCC(=O)N[C@H](CCCCn2nnc3c2-c2ccccc2CN(C(=O)CCNC(=O)c2ccc(-c4c5ccc(=N)c(S(=O)(=O)O)c-5oc5c(S(=O)(=O)O)c(N)ccc45)c(C(=O)O)c2)c2ccccc2-3)C(N)=O)[C@@H](C)O)C(C)(C)C)NC(=O)[C@H](CC(N)=O)NC(=O)C(C)(C)NC(=O)[C@H](CCCNC(=N)N)NC(=O)[C@H](CCCCN)NC1=O)[C@@H](C)O [PSM-0183, Ac-Thr-Aib-Phe-[Cys-Lys-Arg-Aib-Asn-Cys]-Tle-Thr-Asp-Ttds-Ttds-AF488N3K-NH2] |  | < 12.6 |  |
| CSCCC(N)C(=O)N[C@H](C(=O)N[C@@H](C)C(=O)N[C@@H](Cc1ccccc1)C(=O)N[C@H]1CSSC[C@@H](C(=O)N[C@@H](CC(C)C)C(=O)N[C@H](C(=O)N[C@@H](CC(=O)O)C(=O)NCC(=O)N[C@@H](CO)C(=O)NCCCOCCOCCOCCCNC(=O)CCC(=O)NCCCOCCOCCOCCCNC(=O)CCC(=O)NCCCOCCOCCOCCCNC(=O)CCC(=O)N[C@@H](CCCCNC(=O)CCCC[C@@H]2SC[C@@H]3NC(=O)N[C@@H]32)C(N)=O)[C@@H](C)O)NC(=O)[C@H](CC(N)=O)NC(=O)[C@H](C)NC(=O)[C@H](CCCNC(=N)N)NC(=O)[C@H](CCCCN)NC1=O)[C@@H](C)O (stereo partly drawn) [PSM-0226, H-Met-Thr-Ala-Phe-[Cys-Lys-Arg-Ala-Asn-Cys]-Leu-Thr-Asp-Gly-Ser-Ttds-Ttds-Ttds-Lys(Bio)-NH2] (H-[ξM]TAFCKRANCLTDGS-X19; disulfide 5-10) | 200 to 1260 |  |  |
| CNCCCC[C@@H]1NC(=O)[C@@H](NC(=O)[C@H](Cc2ccc(Cl)cc2)NC(=O)C(C)(C)NC(=O)[C@@H](NC(=O)CC2CCN(C(=O)CCCC(=O)Nc3cc(CN4CCOCCOCCN(Cc5cccc(C(=O)O)n5)CCOCCOCC4)nc(C(=O)O)c3)CC2)[C@@H](C)O)CSSC[C@@H](C(=O)N[C@H](C(=O)N[C@H](C(N)=O)[C@@H](C)O)C(C)(C)C)NC(=O)[C@H](CC(N)=O)NC(=O)C(C)(C)NC(=O)[C@H](CCCNC(=N)NC)NC1=O [PSM-0515, Macropa-Cmp-Thr-Aib-Pcf-[Cys-Lys(Me)-Arg(Me)-Aib-Asn-Cys]-Tle-Thr-NH2] ({X18-Glutaryl}-[X1]T[Aib][Phe(4-Cl)]C[Lys(Me)][Arg(Me)][Aib]NC[Tle]T-NH2; disulfide 5-10) |  |  | IC50 ([1]; pIC50 category of FACS binding): < 200 nM |
| CC(C)C[C@H](NC(=O)[C@@H]1CSSC[C@H](NC(=O)[C@H](Cc2ccccc2)NC(=O)[C@H](C)NC(=O)[C@@H](NC(=O)CCC(=O)NCCCOCCOCCOCCCNC(=O)CN2CCN(CC(=O)O)CCN(CC(=O)O)CCN(CC(=O)O)CC2)[C@@H](C)O)C(=O)N[C@@H](CCCCN)C(=O)N[C@@H](CCCNC(=N)N)C(=O)N[C@@H](C)C(=O)N[C@@H](CC(N)=O)C(=O)N1)C(=O)N[C@H](C(=O)N[C@@H](CC(=O)O)C(N)=O)[C@@H](C)O [PSM-0251, DOTA-Ttds-Thr-Ala-Phe-[Cys-Lys-Arg-Ala-Asn-Cys]-Leu-Thr-Asp-NH2] ({X3-Suc}-TAFCKRANCLTD-NH2; disulfide 4-9) | 200 to 1260 |  |  |
| CSCC[C@@H]1NC(=O)C(C)(C)NC(=O)[C@H](CCCNC(N)=O)NC(=O)[C@H](CCCCN)NC(=O)[C@@H](NC(=O)[C@H](Cc2ccc(Cl)cc2)NC(=O)C(C)(C)NC(=O)[C@@H](NC(C)=O)[C@@H](C)O)CSSC[C@@H](C(=O)N[C@H](C(=O)N[C@H](C(N)=O)[C@@H](C)O)C(C)(C)C)NC1=O [PSM-0229, Ac-Thr-Aib-Pcf-[Cys-Lys-Arg-Aib-Met-Cys]-Tle-Thr-NH2] (Ac-T[Aib][Phe(4-Cl)]CK[Cit][Aib]MC[Tle]T-NH2; disulfide 4-9) |  | < 12.6 |  |
